Experimental data from US20110130432A1, “Heterocyclic Carboxamides For Use As Thrombin Inhibitors” (ASTRAZENECA AB, priority 2008, published 2011).
pIC50: −log10 of the molar value.

Biological target: T1, Human α-thrombin (Homo sapiens, UniProt P00734)
T1 construct: Human α-thrombin; purchased Sigma Chemical Co. or Hematologic Technologies
Assay: Test A: Determination of Thrombin Inhibition with a Chromogenic, Robotic Assay
Type: biochemical
Conditions: chromogenic substrate S-2366 0.30 mmol/L, α-thrombin 0.020 NIHU/mL, 40 minutes incubation at 37° C.
Description: Determination of Thrombin Inhibition with a Chromogenic, Robotic Assay
The thrombin inhibitor potency is measured with a chromogenic substrate method, in a Plato 3300 robotic microplate processor (Rosys AG, CH-8634 Hombrechtikon, Switzerland), using 96-well, half volume microtitre plates (Costar, Cambridge, Mass., USA; Cat No 3690). Stock solutions of test substance in DMSO (72 μL), 0.1-1 mmol/L, are diluted serially 1:3 (24+48 μL) with DMSO to obtain ten different concentrations, which are analyzed as samples in the assay. 2 μL of test sample is diluted with 124 μL assay buffer, 12 μL of chromogenic substrate solution (S-2366, Chromogenix, Mölndal, Sweden) in assay buffer and finally 12 μL of α-thrombin solution (Human α-thrombin, Sigma Chemical Co. or Hematologic Technologies) in assay buffer, are added, and the samples mixed. The final assay concentrations are: test substance […], S-2366 0.30 mmol/L, α-thrombin 0.020 NIHU/mL The linear absorbance increment during 40 minutes incubation at 37° C. is used for calculation of percentage inhibition for the test samples, as compared to blanks without inhibitor. The IC50 value, corresponding to the inhibitor concentration which causes 50% inhibition of the thrombin activity, is calculated from a log concentration vs. % inhibition curve.

| SMILES | pIC50 |
| --- | --- |
| O=C(NCc1cc(Cl)ccc1-n1cnnn1)[C@@H]1CCON1C(=O)C(O)c1ccccc1F (stereo partly drawn) [Example 36, (3S)—N-[5-Chloro-2-(1H-tetrazol-1-yl)benzyl]-2-[(2-fluorophenyl)(hydroxy)acetyl]isoxazolidine-3-carboxamide] | 7.03 |
| O=C(NCc1cc(Cl)ccc1-n1cnnn1)[C@@H]1CC=NN1C(=O)[C@H](O)CC1CC1 [Example 19, (5S)—N-[5-Chloro-2-(1H-tetrazol-1-yl)benzyl]-1-[(2R)-3-cyclopropyl-2-hydroxypropanoyl]-4,5-dihydro-1H-pyrazole-5-carboxamide] | 7.51 |
| O=C(NCc1cc(Cl)ccc1-n1cnnn1)[C@@H]1CCON1C(=O)[C@H](O)C1CCCCC1 [Example 42, (3S)—N-[5-Chloro-2-(1H-tetrazol-1-yl)benzyl]-2-[(2R)-2-cyclohexyl-2-hydroxyacetyl]isoxazolidine-3-carboxamide] | 7.68 |
| CC(C)(C)OC[C@@H](O)C(=O)N1OCC[C@H]1C(=O)NCc1cc(Cl)ccc1-n1cnnn1 [Example 40, (3S)-2-[(2R)-3-tert-Butoxy-2-hydroxypropanoyl]-N-[5-chloro-2-(1H-tetrazol-1-yl)benzyl]isoxazolidine-3-carboxamide] | 7.36 |
| O=C(NCc1cc(Cl)ccc1-n1cnnn1)[C@@H]1CC=NN1C(=O)C(O)c1cccc(F)c1F (stereo partly drawn) [Example 2, (5S)—N-[5-Chloro-2-(1H-tetrazol-1-yl)benzyl]-1-[(2,3-difluorophenyl)(hydroxy)acetyl]-4,5-dihydro-1H-pyrazole-5-carboxamide] | 7.47 |
| O=C(NCc1cc(Cl)ccc1-n1cnnn1)[C@@H]1CC=NN1C(=O)[C@H](O)C1CCCC1 [Example 5, (5S)—N-[5-Chloro-2-(1H-tetrazol-1-yl)benzyl]-1-[(2R)-2-cyclopentyl-2-hydroxyacetyl]-4,5-dihydro-1H-pyrazole-5-carboxamide] | 7.62 |
| Cc1cccc(C(O)C(=O)N2OCC[C@H]2C(=O)NCc2cc(Cl)ccc2-n2cnnn2)c1 (stereo partly drawn) [Example 37, (3S)—N-[5-Chloro-2-(1H-tetrazol-1-yl)benzyl]-2-[hydroxy(3-methylphenyl)acetyl]isoxazolidine-3-carboxamide] | 7.80 |
| CCCCC(=O)O[C@@H](C(=O)N1N=CC[C@H]1C(=O)NCc1cc(Cl)ccc1-n1cnnn1)c1ccc(F)cc1 [Example 27, (1R)-2-[(5S)-5-{[5-Chloro-2-(1H-tetrazol-1-yl)benzyl]carbamoyl}-4,5-dihydro-1H-pyrazol-1-yl]-1-(4-fluorophenyl)-2-oxoethyl pentanoate] | 6.85 |
| CC1(C[C@@H](O)C(=O)N2OCC[C@H]2C(=O)NCc2cc(Cl)ccc2-n2cnnn2)CC1 [Example 43, (3S)—N-[5-Chloro-2-(1H-tetrazol-1-yl)benzyl]-2-[(2R)-2-hydroxy-3-(1-methylcyclopropyl)propanoyl]isoxazolidine-3-carboxamide] | 7.17 |
| CCC(=O)Oc1cc(C)cc(C)c1C(C)(C)CC(=O)O[C@@H](C(=O)N1N=CC[C@H]1C(=O)NCc1cc(Cl)ccc1-n1cnnn1)c1ccc(F)cc1 [Example 30, (R)-2-((S)-5-(5-Chloro-2-(1H-tetrazol-1-yl)benzylcarbamoyl)-4,5-dihydro-1H-pyrazol-1-yl)-1-(4-fluorophenyl)-2-oxoethyl 3-(2,4-dimethyl-6-(propionyloxy)phenyl)-3-methylbutanoate] | 6.18 |
| O=C(NCc1cc(Cl)ccc1-n1cnnn1)[C@@H]1CCNN1C(=O)[C@H](O)c1ccc(F)cc1 [Example 52, (3S)—N-[5-Chloro-2-(1H-tetrazol-1-yl)benzyl]-2-[(2R)-2-(4-fluorophenyl)-2-hydroxyacetyl]pyrazolidine-3-carboxamide] | 8.08 |
| O=C(NCc1cc(Cl)ccc1-n1cnnn1)[C@@H]1CCNN1C(=O)C1(O)CCOc2ccccc21 (stereo partly drawn) [Example 53, (3S)—N-[5-Chloro-2-(1H-tetrazol-1-yl)benzyl]-2-[(4-hydroxy-3,4-dihydro-2H-chromen-4-yl)carbonyl]pyrazolidine-3-carboxamide] | 6.62 |
| O=C(NCc1cc(Cl)ccc1-n1cnnn1)[C@@H]1CCON1C(=O)C(O)c1cc(F)cc(F)c1 (stereo partly drawn) [Example 35, (3S)—N-[5-Chloro-2-(1H-tetrazol-1-yl)benzyl]-2-[(3,5-difluorophenyl)(hydroxy)acetyl]isoxazolidine-3-carboxamide] | 7.15 |
| O=C(NCc1cc(Cl)ccc1-n1cnnn1)[C@@H]1CCNN1C(=O)[C@H](O)C1CCCCC1 [Example 55, (3S)—N-[5-Chloro-2-(1H-tetrazol-1-yl)benzyl]-2-[(2R)-2-cyclohexyl-2-hydroxyacetyl]pyrazolidine-3-carboxamide] | 8.08 |
| CC(C)(C)OC[C@@H](N)C(=O)N1OCC[C@H]1C(=O)NCc1cc(Cl)ccc1-n1cnnn1 [Example 32, (3S)-2-(O-tert-Butyl-D-seryl)-N-[5-chloro-2-(1H-tetrazol-1-yl)benzyl]isoxazolidine-3-carboxamide] | 6.77 |

Continued by rising pIC50, values first:

| pIC50 | SMILES |
| --- | --- |
| 6.80 | O=C(NCc1cc(Cl)ccc1-n1cnnn1)[C@@H]1CCON1C(=O)C(O)c1cccc(F)c1F (stereo partly drawn) [Example 34, (3S)—N-[5-Chloro-2-(1H-tetrazol-1-yl)benzyl]-2-[(2,3-difluorophenyl)(hydroxy)acetyl]isoxazolidine-3-carboxamide] |
| 6.80 | CCCC(=O)O[C@@H](C(=O)N1N=CC[C@H]1C(=O)NCc1cc(Cl)ccc1-n1cnnn1)c1ccc(F)cc1 [Example 25, (1R)-2-[(5S)-5-{[5-Chloro-2-(1H-tetrazol-1-yl)benzyl]carbamoyl}-4,5-dihydro-1H-pyrazol-1-yl]-1-(4-fluorophenyl)-2-oxoethyl butanoate] |
| 6.85 | CC(C)CC(=O)O[C@@H](C(=O)N1N=CC[C@H]1C(=O)NCc1cc(Cl)ccc1-n1cnnn1)c1ccc(F)cc1 [Example 24, (1R)-2-[(5S)-5-{[5-Chloro-2-(1H-tetrazol-1-yl)benzyl]carbamoyl}-4,5-dihydro-1H-pyrazol-1-yl]-1-(4-fluorophenyl)-2-oxoethyl 3-methylbutanoate] |
| 7.04 | N#Cc1cccc(C(O)C(=O)N2OCC[C@H]2C(=O)NCc2cc(Cl)ccc2-n2cnnn2)c1 (stereo partly drawn) [Example 48, (3S)—N-[5-Chloro-2-(1H-tetrazol-1-yl)benzyl]-2-[(3-cyanophenyl)(hydroxy)acetyl]isoxazolidine-3-carboxamide] |
| 7.10 | O=C(NCc1cc(Cl)ccc1-n1cnnn1)[C@@H]1CCNN1C(=O)[C@H](O)Cc1ccccc1 [Example 56, (3S)—N-[5-Chloro-2-(1H-tetrazol-1-yl)benzyl]-2-[(2R)-2-hydroxy-3-phenylpropanoyl]pyrazolidine-3-carboxamide] |
| 7.37 | CCCC[C@@H](O)C(=O)N1OCC[C@H]1C(=O)NCc1cc(Cl)ccc1-n1cnnn1 [Example 38, (3S)—N-[5-Chloro-2-(1H-tetrazol-1-yl)benzyl]-2-[(2R)-2-hydroxyhexanoyl]isoxazolidine-3-carboxamide] |
| 7.39 | O=C(NCc1cc(Cl)ccc1-n1cnnn1)[C@@H]1CCON1C(=O)[C@H](O)C1CCCC1 [Example 41, (3S)—N-[5-Chloro-2-(1H-tetrazol-1-yl)benzyl]-2-[(2R)-2-cyclopentyl-2-hydroxyacetyl]isoxazolidine-3-carboxamide] |
| 8.01 | O=C(NCc1cc(Cl)ccc1-n1cnnn1)[C@@H]1CCON1C(=O)[C@H](O)c1ccc(F)cc1 [Example 31, (3S)—N-[5-Chloro-2-(1H-tetrazol-1-yl)benzyl]-2-[(2R)-2-(4-fluorophenyl)-2-hydroxyacetyl]isoxazolidine-3-carboxamide] |
